Experimental data reported in US11578092B2, “Compound for preventing or treating neurodegenerative disease and application thereof” (Shanghai Pharmaceuticals Holding Co., Ltd., priority 2018, dated 2023).

Experiments:
[1] = test system: human neural progenitor cell (differentiated by humanized iPSC); experiment: EdU incorporation, proliferation of human neural progenitor cells; type: cell-based; conditions: dosage 0, 1, 3, 10, 30 or 100 μM, vs untreated control
Method: The inventors investigated whether PL404 has the effect on promoting proliferation by detecting the EdU incorporation of a human neural progenitor cell (differentiated by humanized iPSC). The dosage of PL404 was 0, 1, 3, 10, 30, or 100 μM.
The method similar to that in Example 7 was used, except that compound PL404 was replaced by PL405, and by detecting the EdU incorporation of human neural progenitor cells, whether PL405 has the effect on promoting proliferation was investigated.

[2] = test system: APP/PS1 transgenic male mice (AD mice); experiment: Morris water maze test in AD mice; type: in vivo; conditions: 50 mg/kg daily intragastric, 90 days; for learning and memory abilities of AD mice after administration: Morris water maze
Method: Twenty 5-6-month-old APP/PS1 transgenic male mice (AD mice) were selected and divided into a model group and a polysaccharide administration group according to the random number table method. PL402 was administered daily by intragastric administration (50 mg/kg), and 10 non-transgenic mice were used in a negative control group (without administration). After 90 days of consecutive administration, Morris water maze behavior test was used to detect the effect of PL402 on the learning and cognitive functions of APP/PS1 mice.
In this experiment, a classic Morris water maze test procedure was used, which includes a place navigation test and a space exploration test. The duration of the experiment was 7 days in total, and the space exploration test was introduced at Days 4 and 7.
The selection of animals and the “Morris water maze experiment” was performed as described in Example 3, to detect the effect of PL404 on the animal learning and memory abilities.

mouse BV-2 cells = experiment: Expression of inflammatory factors in LPS-stimulated BV-2 cells (QPCR); type: cell-based; conditions: LPS 300 ng/ml, compound 10-300 μM, 24 hours
Method: Neuroinflammation in the brain of AD is one of the causes of cognitive decline. Microglia are key cells that mediate neuroinflammation. The inventors studied whether PL402 is effective in inhibiting neuroinflammation by detecting the expression of inflammatory factors on mouse BV-2 cells.
BV-2 cells culture and stimulation: BV-2 cells were cultured in DMEM, plated in a 24-well plate and cultured for 24 hours. Then PL402 (0, 10, 30, 100, or 300 μM) and LPS (300 ng/ml) were added, and then incubated for 24 hours. RNA was extracted with Trizol, and the expression of related inflammatory factors was detected by QPCR.

[3] = test system: neuroblastoma cells SK—N—SH cells; experiment: Total Aβ level in supernatant of SK-N-SH cells (ELISA); type: cell-based; conditions: 24 hours
Method: Aβ is the main pathogenic protein of AD. The inventors investigated whether PL402 has an effect on inhibiting Aβ production by detecting the level of Aβ in neuroblastoma cells SK—N—SH cells (which can secrete Aβ).
Culture of SK—N—SH and detection of Aβ: SK—N—SH cells were cultured in DMEM, plated in a 24-well plate and cultured for 24 hours. PL402 (0, 10, 30, 100, or 300 μM) was added, and then incubated for 24 hours. The supernatant was collected and the total Aβ protein level was detected by ELISA.

Structure (SMILES) | increase of human neural progenitor cell proliferation level compared with the control group [1] | learning and memory abilities of AD mice after administration [2] | escape latency (latency to reach the platform) compared with the model group ([2]; place navigation test, 50 mg/kg) | expression of inflammatory factor IL-1β (mouse BV-2 cells) | expression of inflammatory factor IL-6 (mouse BV-2 cells) | production of Aβ (total Aβ protein level) ([3]; compound 10-300 μM, ELISA of supernatant) | concentration at which the inhibition of Aβ production is most desirable ([3]; tested 0, 10, 30, 100, 300 μM)
COc1cc(/C=C/C(=O)OC2C(C)OC(OC3C(C)OC(O)C(O)C3O)C(O)C2O)ccc1O (stereo not drawn) [PL405] | about 60% |  |  |  |  |  | 
COc1cc(/C=C/C(=O)OC2C(C)OC(OC3C(C)OC(O)C4OC(C)(C)OC34)C(O)C2O)ccc1O (stereo not drawn) [PL404] | about 30% | significantly improved |  |  |  |  | 
COc1cc(/C=C/C(=O)O[C@@H]2OC(C)[C@H](O[C@@H]3OC(C)[C@H](O)C(O)C3O)C(O)C2O)ccc1O (stereo partly drawn) [PL402] |  | significantly improved | statistically significant decrease | significantly inhibit | significantly inhibit | significantly inhibit | 100 µM
